Results published in paper PMC11732441, “Biased constitutive signaling of the G protein-coupled receptor GPR35 suppresses gut barrier permeability [drawing 1]” (The Journal of Biological Chemistry, 2024).

Tests used:
hGPR35a [1] = target: T1, hGPR35a (Homo sapiens, UniProt Q9HC97); assay: BRET G protein re-association (inverse agonism) in HEK293 cells; effect in HEPG2 cells lost on GPR35 knock-out; type: cell-based
T1 construct: gene GPR35; FLAG-hGPR35a (N-terminal FLAG tag); with Gα13/Gβ3/Gγ9

hGPR35a [2] = target: T1, hGPR35a; assay: BRET G protein dissociation (TRUPATH-like) in Flp-In T-REx […] cells expressing FLAG-hGPR35a; type: cell-based

T1 sequence (Q9HC97 whole entry): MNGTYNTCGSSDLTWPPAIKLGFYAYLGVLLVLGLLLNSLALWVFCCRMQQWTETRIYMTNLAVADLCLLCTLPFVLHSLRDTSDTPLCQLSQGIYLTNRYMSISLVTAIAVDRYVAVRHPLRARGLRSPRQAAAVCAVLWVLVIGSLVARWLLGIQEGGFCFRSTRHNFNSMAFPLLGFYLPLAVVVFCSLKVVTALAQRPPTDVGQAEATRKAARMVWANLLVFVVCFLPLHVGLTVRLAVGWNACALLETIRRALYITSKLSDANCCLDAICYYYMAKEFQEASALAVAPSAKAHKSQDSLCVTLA
T1 sequence (Q14344 whole entry partner): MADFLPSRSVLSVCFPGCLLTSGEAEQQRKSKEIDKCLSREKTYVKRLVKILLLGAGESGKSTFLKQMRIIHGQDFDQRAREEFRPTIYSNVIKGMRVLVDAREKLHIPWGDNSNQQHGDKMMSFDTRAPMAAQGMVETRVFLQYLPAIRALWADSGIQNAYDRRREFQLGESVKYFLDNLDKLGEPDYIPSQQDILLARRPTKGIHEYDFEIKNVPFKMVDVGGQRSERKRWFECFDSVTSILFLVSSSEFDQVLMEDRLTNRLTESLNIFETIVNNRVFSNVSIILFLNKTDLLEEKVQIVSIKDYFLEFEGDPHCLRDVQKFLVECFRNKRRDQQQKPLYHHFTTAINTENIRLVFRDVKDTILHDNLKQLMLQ
T1 sequence (P16520 whole entry partner): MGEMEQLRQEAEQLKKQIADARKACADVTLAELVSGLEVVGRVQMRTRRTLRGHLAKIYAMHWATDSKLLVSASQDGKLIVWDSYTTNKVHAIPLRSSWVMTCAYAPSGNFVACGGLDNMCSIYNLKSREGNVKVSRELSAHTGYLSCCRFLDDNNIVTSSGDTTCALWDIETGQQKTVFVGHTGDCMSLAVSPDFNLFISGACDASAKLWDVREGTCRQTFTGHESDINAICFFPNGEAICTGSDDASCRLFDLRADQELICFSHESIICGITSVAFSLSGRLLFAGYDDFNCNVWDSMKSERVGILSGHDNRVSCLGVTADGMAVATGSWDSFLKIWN
T1 sequence (O14610 1-66 partner): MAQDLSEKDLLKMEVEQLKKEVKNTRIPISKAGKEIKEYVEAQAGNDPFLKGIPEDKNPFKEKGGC

| EC50 (hGPR35a [2]) | SMILES | BRET G protein re-association (inverse agonism) in HEK293 cells; effect in HEPG2 (hGPR35a [1]) |
| --- | --- | --- |
| – | COC(=O)c1cnn(-c2ccc(F)cc2F)c1C=NNC(=S)NC(C)(C)C [CID-2745687] | the BRET signal induced by CID-2745687 increased with receptor plasmid amount |
| 1.48 nM | N#Cc1cc(NC(=O)C(=O)O)c(Cl)c(NC(=O)C(=O)O)c1 [lodoxamide] | – |
